The test system of experiment [1] is CD133+ CXCR4+ CSC subpopulation. Kind of experiment: Flow cytometry of migrating CSC. Type of experiment: cell-based, human.
The subject of experiment [2] is primary human pancreatic cancer cells. Kind of experiment: CSC content by flow cytometry in primary pancreatic cancer cells from patients. Format: cell-based. The following applies: freshly isolated primary pancreatic cancer cells. The protocol: The findings from Examples 1.1 and 1.2 in tumour cell lines were reproduced in primary patient tissue with viability tested with propidium iodide (FIGS. 4A-4D).
The findings from Examples 2.1 in tumour cell lines were reproduced in fresh primary tumour cells from patients with pancreatic cancer with viability tested with propidium iodide (FIGS. 13A-13D). In vitro treatment with the combined therapy of 100 ng/ml Gemcitabine and 5 μM SB431542 led to the elimination of CD 133^+ cancer stem cells.
Primary human pancreatic cancer cells. Human pancreatic cancers were obtained with written informed consent from all patients. Tissue fragments were minced with scissors into small (1-2 mm^3) fragments. Enzymatic digestion was performed using a mixture of DMEM medium and collagenase (Stem Cell Technologies, Vancouver, Canada) for 90 min at 37° C. (Hermann et al., 2007, supra).
Cytometry. Pancreatic CSC were identified by CD133/1-APC or CD133-PE (Miltenyi, Bergisch-Gladbach, Germany) (Hermann et al., 2007, supra). Side population experiments were performed as described by Goodell et al. (1996) (see Goodell et al., 1996, J Exp Med 183, 1797-1806) and cells were identified by exclusion of the vital dye Hoechst 33342. […]
On the technique in general: In flow cytometry, cells or beads pass a laser one at a time.

Another experiment has as its system pancreatic CSC spheres. The experiment is described as follows: CSC-enriched tumour sphere assay. Type of experiment: cell-based, human. As to conditions: ultra low adhesion 6-well plates. The protocol: (§1) First, pancreatic CSC were clonally expanded as CSC-enriched spheres (FIGS. 18C1-18C5). Floating spheres were treated in ultra low adhesion 6-well plates. After completion of the treatment, five randomly selected high-power fields were analyzed.
Human pancreatic cancer cell line. The highly metastatic human pancreatic cell line L3.6pl was maintained in DMEM medium (Invitrogen, Karlsruhe, Germany) with 12% Fetal Calf Serum (Biochrom, Berlin, Germany), Glutamax (Invitrogen), non-essential amino acids, and vitamins (all from PAN, Aidenbach, Germany) (Hermann et al., 2007, supra). Cultures were kept no longer than 4 weeks after recovery from frozen stocks. CSC spheres were cultured in DMEM-F12 supplemented with B27 (Gibco, Karlsruhe, Germany) and FGF-2 (PeproTech EC, London, United Kingdom) (Hermann et al., 2007, supra).

In the next experiment the test system is pancreatic cancer cells. The experiment is described as follows: Transmigration assay (modified Boyden chamber, SDF-1 stimulus). Type of experiment: cell-based, human. The following applies: SDF-1 as migratory stimulus.
Experiment [3] relates to orthotopically implanted tumour cells. The experiment is described as follows: In vivo treatment of orthotopic tumours with Gemcitabine and SB431542. More on the design: species or system mice. The protocol:
Seven days after orthotopic implantation of tumour cells, therapy with either Gemcitabine alone or in combination with targeted Nodal/Activin inhibition by SB431542 was initiated. The double combination therapy was stopped after 14 days of treatment, the single Gemcitabine treatment was continued until sacrifice of the animals. 35 days after tumour cell treatment, PET scans were done and evaluation of tumour volume was performed on day 42.

For experiment [4], the system named is primary human pancreatic cancer tissue. The experiment is described as follows: In vivo treatment of implanted patient pancreatic tumor tissue with gemcitabine plus SB431542. Further details: species or system mice. The following applies: treatment from day 7, assessed day 28. The protocol:
FIG. 33: In vivo treatment with the Alk4/7 inhibitor SB431542. This illustrates Nodal/Activin inhibition to eliminate primary human pancreatic CSC in vivo. Tumor tissue from patient with pancreatic cancer was implanted into immunocompromised mice. Treatment was started on day 7 after implantation. Mice were randomized to gemcitabine alone or gemcitabine plus SB431542. Tumor growth was assessed on day 28.

Experiment [5] has as its system L3.6pl orthotopic pancreatic tumours. Kind of experiment: In vivo treatment of established orthotopic pancreatic cancer (Gemcitabine, Cyclopamine, Rapamycin). The protocol: Gemcitabine was administered twice a week by intraperitoneal injections at 125 mg/kg BW.
In order to test the identified combination therapy in a clinically most relevant setting, a model of established orthotopic pancreatic cancer was used in this experiment. […] The detailed experimental setup is depicted in FIG. 21A. […] Gemcitabine was given for a prolonged period of 11 weeks in analogy to clinical practice. Tumour volume was non-invasively measured on day 42 using a caliper (FIG. 21B), and was controlled via MR imaging on day 49 (FIG. 21C).
Animals and Orthotopic Implantation of Tumour Cells. Single-cell suspensions were orthotopically implanted into the pancreas of female NMRI nu/nu mice (Janvier, Le Genest-Saint-Isle, France) (Hermann et al., 2007, supra). Size and weight of the pancreatic tumours were monitored.
In vivo treatment of established pancreatic cancers. Seven days after orthotopic implantation of L3.6pl cells, mice were randomized to the respective treatment groups. Gemcitabine was administered biweekly (125 mg/kg i.p.). […] Rapamycin (5 mg/kg/day; Wyeth, Madison, N.J.) was orally administered via the drinking water as reported previously (Huber et al., 2007, supra).

Experiment [6] has as its system primary human pancreatic cancer tissue. The experiment is described as follows: In vivo triple combination treatment of implanted patient pancreatic tumor tissue. Further details: species or system mice. The following applies: treatment from day 21; assessed up to 100 days.
Experimental: Tumor tissue from patient with pancreatic cancer was implanted into immunocompromised mice. Treatment was started on day 21 after implantation. Mice were randomized to gemcitabine alone or combination therapy. Tumor growth was assessed up to 100 days.
In experiment [7] the test system is side population (SP) cells. Kind of experiment: Side population (Hoechst 33342 exclusion). Type of experiment: cell-based, human. The protocol:
as §1

SMILES strings stand for the structures.

With `Nc1ccn(C2OC(CO)C(O)C2(F)F)c(=O)n1` (stereo not drawn) [Gemcitabine, 4-amino-1-[3,3-difluoro-4-hydroxy-5-(hydroxymethyl)tetrahydrofuran-2-yl]-1H-pyrimidin-2-one], the “CD133+ CXCR4+ migrating CSC” value in experiment [1] is given as “enriches”. The “CSC fraction (CD133+ and CD24+CD44+EpCAM+ populations)” value in [2] was “tended to relatively enrich”. The “tumour spheres / CD133+ cells in CSC-enriched spheres” value in the experiment on pancreatic CSC spheres is “marked relative increase of CD133^+ cells”. Moreover, the migratory activity result in the experiment with pancreatic cancer cells was “unable to significantly reduce”. Also, the tumour size entry in experiment [3] (mouse, in vivo) was “reduction of tumour size”. Also, the “tumour formation / tumour incidence” value in experiment [3] (therapy from day 7, combination 14 days, PET day 35, volume day 42) is recorded as “unaffected”. In addition, the “tumor response / regression” value in experiment [4] is “strong response”. Further, the “prolongation of median survival” value in experiment [5] (Gemcitabine 125 mg/kg i.p. twice a week) worked out at 22 days. Besides, the survival result in experiment [5] (Gemcitabine vs control, CRG vs Gemcitabine alone) was “significantly prolonged”. Moreover, the tumour size entry in experiment [5] (compared to control) is recorded as “significantly smaller compared to control”. In addition, the “tumour volume on day 42 (caliper)” value in experiment [5] (day 42) is recorded as “considerable tumor size”. Besides, the “tumour volume via MR imaging on day 49” value in [5] (day 49) is recorded as “considerable tumor size”. Also, in experiment [5] (mouse, in vivo), the “latest day of survival” value was ≤ 71 days, the median survival is 57 days and the tumour take rate amounted to 100%. Besides, in experiment [5] (orthotopic mouse model of xenotransplanted human pancreatic cancer), the “CD133+ cells in the residual tumour tissue” value is recorded as “significant enrichment”. Besides, the tumor growth result in [6] was “virtually unrestricted growth”. Also, the “side population (SP) cells” value in experiment [7] is “unaffected”.

(Values after patent publication US20110151020A1, “ACTIVE SUBSTANCE COMBINATION WITH GEMCITABINE FOR THE TREATMENT OF EPITHELIAL CANCER” (priority 2008, published 2011).)
